This is an account of results in patent US12378211B2, “Carbonic anhydrase inhibitors and antibiotics against multidrug resistant bacteria” (Purdue Research Foundation, priority 2018, dated 2025).

SMILES strings stand for the structures. Values after ≈ are worked out from the molar mass of the structure shown. Like-named read-outs stand apart in the source and are kept apart here.

Data set [1] concerns fibroblast-like monkey kidney cell line (VERO cell). Nature of the data set: In vitro cytotoxicity, MTS assay, VERO cells. Format: cell-based. The note with it: at concentration up to 128 μg/mL; tested at 64 and 128 μg/mL; two hours. How it is done:
Toxicity assessment: Compounds AS005H, AS005J, AS004B, AS005K, AS005A and 005D were assayed (at concentrations of 64 and 128 μg/mL) against a fibroblast-like monkey kidney cell line (VERO cell) to determine the potential toxic effect in vitro. Briefly, cells were cultured in Minimum Essential Medium (MEM) supplemented with 10% fetal bovine serum (FBS), 1 mM sodium pyruvate, and penicillin-streptomycin at 37° C. with CO2 (5%). Control cells received DMSO alone at a concentration equal to that in drug-treated cell samples. The cells were incubated with the compounds (in triplicate) in a 96-well plate at 37° C. with CO2 (5%) for two hours. The assay reagent MTS 3-(4,5-dimethylthiazol-2-yl)-5-(3-carboxymethoxyphenyl)-2-(4-sulfophenyl)-2H-tetrazolium) (Promega, Madison, WI, USA) was subsequently added and the plate was incubated for four hours. Absorbance readings (at OD490) were taken using a kinetic microplate reader (Molecular Devices, Sunnyvale, CA, USA). The quantity of viable cells after treatment with each compound was expressed as a percentage of the viability of DMSO-treated control cells (average of triplicate wells±standard deviation). The toxicity data was analyzed via a two-way ANOVA, with post hoc Dunnet's multiple comparisons test (P<0.05), utilizing GraphPad Prism 6.0 (GraphPad Software, La Jolla, CA).
(§1) Percent viable mammalian cells (measured as average absorbance ratio (test agent relative to DMSO) for cytotoxicity analysis of compounds AS005H, AS005J, AS004B, AS005K, AS005A and 005D (tested in triplicates) at 64 and 128 μg/mL against VERO cells using the MTS 3-(4,5-dimethylthiazol-2-yl)-5-(3-carboxymethoxyphenyl)-2-(4-sulfophenyl)-2H-tetrazolium) assay. Dimethyl sulfoxide (DMSO) was used as a negative control to determine a baseline measurement for the cytotoxic impact of each compound. The absorbance values represent an average of a minimum of three samples analyzed for each compound. Error bars represent standard deviation values for the absorbance values.

Data set [2] has as its system Staphylococcus epidermidis NRS 101. As to the kind of experiment: MIC against Staphylococci, broth microdilution. The data set is classed as cell-based. Particulars: TSB. How it is done:
The minimum inhibitory concentrations (MICs) of the compounds and control drugs were determined using the broth microdilution method, according to guidelines outlined by the Clinical and Laboratory Standards Institute (CLSI) 1. Staphylococci strains were grown aerobically overnight on tryptone soya agar plates at 37° C., afterwards a bacterial solution equivalent to 0.5 McFarland standard was prepared and diluted in tryptone soy broth (TSB) to achieve a bacterial concentration of about 5×10^5 CFU/mL and seeded in 96-well well plates. Compounds and control drugs were added in the first row of the 96-well plates and serially diluted along the plates. Plates were then incubated aerobically at 37° C. for 18-20 hours. MICs reported in Table 2 are the minimum concentration of the compounds/control drugs that could inhibit completely the visual growth of the bacteria.

Data set [3] concerns human colorectal adenocarcinoma (Caco-2) cell. As to the kind of experiment: In vitro cytotoxicity, MTS assay, Caco-2 cells. Particulars: at concentration up to 128 μg/mL; tested at 64 and 128 μg/mL; two hours. How it is done: Method: Compounds AS005H, AS005J, AS004B, AS005K, AS005A and 005D were assayed (at concentrations of 64 and 128 μg/mL) against a human colorectal adenocarcinoma (Caco-2) cell to determine the potential toxic effect to mammalian cells in vitro. Briefly, cells were cultured in Dulbecco's Modified Eagle Medium (DMEM) supplemented with 20% fetal bovine serum (FBS), non-essential amino acids (1×), penicillin-streptomycin at 37° C. with CO2 (5%). Control cells received DMSO alone at a concentration equal to that in drug-treated cell samples. The cells were incubated with the compounds (in triplicate) in a 96-well plate at 37° C. with CO2 (5%) for two hours. The assay reagent MTS 3-(4,5-dimethylthiazol-2-yl)-5-(3-carboxymethoxyphenyl)-2-(4-sulfophenyl)-2H-tetrazolium) (Promega, Madison, WI, USA) was subsequently added and the plate was incubated for four hours. Absorbance readings (at OD490) were taken using a kinetic microplate reader (Molecular Devices, Sunnyvale, CA, USA). The quantity of viable cells after treatment with each compound was expressed as a percentage of the viability of DMSO-treated control cells (average of triplicate wells±standard deviation). The toxicity data was analyzed via a two-way ANOVA, with post hoc Dunnet's multiple comparisons test (P<0.05), utilizing GraphPad Prism 6.0 (GraphPad Software, La Jolla, CA).
as §1, with “of” for “of compounds”, “005D compounds” for “005D”, “triplicate)” for “triplicates)”, “Caco-2” for “VERO”, “values. […]” for “values.”

The subject of data set [4] is Mutant-2 of Enterococcus fecalis NR 31975. Nature of the data set: microbe, parasite or virus in culture. The data set is classed as cell-based.
Data set [5] deals with Wild-type E. fecalis (NR 31975). As to the kind of experiment: MIC against wild-type strain (mutant study). The data set is classed as cell-based, Enterococcus fecalis.
Data set [6] relates to Mutant-6 of Enterococcus fecalis NR 31975. Nature of the data set: microbe, parasite or virus in culture. The data set is classed as cell-based.
Data set [7] deals with Mutant-5 of Enterococcus fecalis NR 31975. As to the kind of experiment: microbe, parasite or virus in culture. Format: cell-based.
Data set [8] relates to Enterococcus faecalis-S613 HM-334. Nature of the data set: MIC in presence of 4% human serum albumin. Format: cell-based. Particulars: TSB supplemented with 4% human serum albumin. How it is done:
The minimum inhibitory concentrations (MICs) of CAIs were tested against vancomycin resistant Enterococcus faecalis—S613 HM 334 strain as per the guidelines provided by the Clinical and Laboratory Standards Institute (CLSI). The selected strain was streaked on Tryptic Soy Agar (TSA) plate and let grow for 24 hours at 37° C. Afterwards, a bacterial solution equivalent to 0.5 McFarland standard was prepared and diluted in tryptone soy broth (TSB) supplemented with 4% human serum albumin (HAS) to achieve a bacterial concentration of about 5×10^5 CFU/mL and seeded in 96-well well plates. Compounds and control drugs were added in the first row of the 96-well plates and serially diluted along the plates. Plates were then incubated aerobically at 37° C. for 18-20 hours. MICs reported in table (6) are the minimum concentration of the compounds/control drugs that could inhibit completely the visual growth of the bacteria.

The mark [9] stands for this setting: Staphylococcus epidermidis, NRS101, read-out: MIC.
Setting [10] is: Enterococcus, Table 4, read-out: MIC.

On to `CC(C)C(=O)Nc1nnc(S(N)(=O)=O)s1` [CAI0011, N-(5-Sulfamoyl-1,3,4-thiadiazol-2-yl) isobutyramide], for which, in data set [1], the “toxicity to VERO cells (percent viable cells relative to DMSO)” value was “non-toxic”. For the same molecule, the MIC in data set [2] (setting [9]) is above 64 µg/mL. In data set [3], the “toxicity to Caco-2 cells (percent viable cells relative to DMSO)” value is given as “non-toxic”.

Turning to `CCc1ccc(C(=O)Nc2nnc(S(N)(=O)=O)s2)cc1` [CAI0017, 4-Ethyl-N-(5-sulfamoyl-1,3,4-thiadiazol-2-yl)benzamide], the “toxicity to VERO cells (percent viable cells relative to DMSO)” value in data set [1] was “non-toxic”. In addition, the MIC was 8 µg/mL (≈ 25.6 µM) in data set [4] (Enterococcus); above 64 µg/mL in data set [2] (setting [9]); 2 µg/mL (≈ 6.4 µM) in data set [5] (setting [10]); 8 µg/mL (≈ 25.6 µM) in data set [6] (Enterococcus); 8 µg/mL (≈ 25.6 µM) in data set [7] (Enterococcus). In data set [3], the “toxicity to Caco-2 cells (percent viable cells relative to DMSO)” value is reported as “non-toxic”.

For the molecule `CC(=O)NC[C@H]1CN(c2ccc(N3CCOCC3)c(F)c2)C(=O)O1` [Linezolid, reference compound], the MIC was 4 µg/mL (≈ 11.9 µM) in data set [4] (Enterococcus), at most 0.5 µg/mL in data set [2] (setting [9]), 4 µg/mL (≈ 11.9 µM) in data set [6] (Enterococcus) and 4 µg/mL (≈ 11.9 µM) in data set [7] (Enterococcus).

For `CC(C)=CC(=O)Nc1nnc(S(N)(=O)=O)s1` [CAI0016, 3-Methyl-N-(5-sulfamoyl-1,3,4-thiadiazol-2-yl) but-2-enamide], the “toxicity to VERO cells (percent viable cells relative to DMSO)” value in data set [1] is on record as “non-toxic”. Moreover, the MIC in data set [4] (Mutant-2) was 8 µg/mL (≈ 30.5 µM); in data set [2] it was above 64 µg/mL; in data set [8], above 256 µg/mL; in data set [5] (Table 4), 1 µg/mL (≈ 3.81 µM); in data set [6] (Mutant-6), 16 µg/mL (≈ 61 µM); in data set [7] (Mutant-5) it was 4 µg/mL (≈ 15.2 µM).

For `CC(=O)Nc1nnc(S(N)(=O)=O)s1` [Acetazolamide, reference compound], the MIC is 16 µg/mL (≈ 72 µM) in data set [4] (Enterococcus); above 64 µg/mL in data set [2] (setting [9]); above 256 µg/mL in data set [8] (Enterococcus, read-out: MIC); 32 µg/mL (≈ 144 µM) in data set [6] (Enterococcus); 32 µg/mL (≈ 144 µM) in data set [7] (Enterococcus).

As to `CC(C)(C)C(=O)Nc1nnc(S(N)(=O)=O)s1` [CAI0010, N-(5-Sulfamoyl-1,3,4-thiadiazol-2-yl) pivalamide], the “toxicity to VERO cells (percent viable cells relative to DMSO)” value in data set [1] is recorded as “non-toxic”. The MIC is 8 µg/mL (≈ 30.3 µM) in data set [4] (Enterococcus); above 64 µg/mL in data set [2] (setting [9]); above 256 µg/mL in data set [8] (Enterococcus, read-out: MIC); 0.5 µg/mL (≈ 1.89 µM) in data set [5] (setting [10]); 16 µg/mL (≈ 60.5 µM) in data set [6] (Enterococcus); 4 µg/mL (≈ 15.1 µM) in data set [7] (Enterococcus). The “toxicity to Caco-2 cells (percent viable cells relative to DMSO)” value in data set [3] is given as “non-toxic”.

With `NS(=O)(=O)c1nnc(NC(=O)CCC2CCCC2)s1` [CAI0015], the “toxicity to VERO cells (percent viable cells relative to DMSO)” value in data set [1] is given as “non-toxic”. The MIC is 2 µg/mL (≈ 6.57 µM) in data set [4] (Mutant-2); above 64 µg/mL in data set [2]; above 256 µg/mL in data set [8]; 0.0625 µg/mL (≈ 0.205 µM) in data set [5] (Table 4); 1 µg/mL (≈ 3.29 µM) in data set [6] (Mutant-6); 1 µg/mL (≈ 3.29 µM) in data set [7] (Mutant-5).
